According to patent publication US20150272952A1, “Combination” (GLAXOSMITHKLINE LLC, priority 2012, published 2015):
Read-outs that look alike come from different tables or passages of the source.

Assays:
SK-BR3-W13 = assay: Cell growth inhibition assay (Cell Titer Glo), SK-BR3-W13; assay type: cell-based; details: Homo sapiens
Experimental: (§1) Human tumor cell lines from breast, BT474, BT474-J4, JIMT-1, MDA-MB-361, SK-BR-3, HCC1419, UACC893 and HCC202 in RPMI 1640 containing 10% FBS media; SK-BR-3-W13 and BT474-J4 in RPMI 1640 containing 10% FBS and 1 μM Compound A (in this assay, Compound A, was used in the form of the ditosylate monohydrate salt) media were kept in a humidified incubator at 37° C. in 95% air and 5% CO2 JIMT-1 is a line derived from a patient clinically resistant to trastuzumab (Herceptin®). SK-BR-3-W13 is a single cell clone isolated by a cloning cylinder after a single treatment of SK-BR-3 cells with 0.5 μM Compound A. BT474-J4 is a single cell clone derived from BT474 cells that were selected to grow in Compound A to a concentration of 3 μM.
(§2) All cells were cultured without Compound A for a minimum of 72 hours prior to cell plating. Cells were assayed in a 96-well tissue culture plate (NUNC 136102) of RPMI containing 10% FBS at 2,000 cells/well. Approximately 24 hours after plating, cells were exposed to ten, two-fold or three-fold serial dilutions of Compound A or the combination of the two agents at a constant molar to molar ratio of 10:1 Compound A to Compound B (in this assay, Compound B refers to N-{(1S)-2-amino-1-[(3,4-difluorophenyl)methyl]ethyl}-5-chloro-4-(4-chloro-1-methyl-1H-pyrazol-5-yl)-2-furancarboxamide and was used as the free or unsalted compound) in RPMI media containing 10% FBS. Cells were incubated in the presence of compounds for 3 days. ATP levels were determined by adding Cell Titer Glo® (Promega) according to the manufacturer's protocol. Briefly, Cell Titer Glo® was added each plate, incubated for 20 minutes then luminescent signal was read on the SpectraMax L plate reader with a 0.5 sec integration time.
(§3) Inhibition of cell growth was estimated after treatment with Compound A or the combination of Compound A and Compound B for three days and comparing the signal to cells treated with vehicle (DMSO). Cell growth was calculated relative to vehicle (DMSO) treated control wells. Concentration of compound that inhibits 50% of control cell growth (IC50) was interpolated using nonlinear regression with the equation, y=(A+(B−A)/(1+(C/x)̂D)))), where A is the minimum response (ymin), B is the maximum response (ymax), C is the inflection point of the curve (EC50) and D is the Hill coefficient. […]
(§4) In general, a CI value <0.9, between 0.9 and 1.1, or >1.1 indicates synergy, additivity and antagonism, respectively. In general, the smaller the CI number, the greater is the strength of synergy. […]

HCC202 = assay: Cell growth inhibition assay (Cell Titer Glo), HCC202; assay type: cell-based, Human; details: for sensitivity of the line to single agent: HCC202, E545K PIK3CA mutation; for IC50: Homo sapiens, 72 h, HCC202, PIK3CA E545K, 3 days, single agent
Experimental: as §1, §2, §3, §4

SK-BR-3 = assay: Cell growth inhibition assay (Cell Titer Glo), SK-BR-3; assay type: cell-based; details: Homo sapiens
Experimental: as §1, §2, §3, §4

BT474 = assay: Cell growth inhibition assay (Cell Titer Glo), BT474; assay type: cell-based; details: Homo sapiens
Experimental: as §1, §2, §3, §4

MDA-MB-361 = assay: Cell growth inhibition assay (Cell Titer Glo), MDA-MB-361; assay type: cell-based, Human; details: for IC50: Homo sapiens, 72 h, MDA-MB-361, PIK3CA E545K, 3 days, single agent; for sensitivity of the line to single agent: MDA-MB-361, E545K PIK3CA mutation
Experimental: as §1, §2, §3, §4

JIMT1 = assay: Cell growth inhibition assay (Cell Titer Glo), JIMT1; assay type: cell-based; details: Homo sapiens
Experimental: as §1, §2, §3, §4

UACC893 = assay: Cell growth inhibition assay (Cell Titer Glo), UACC893; assay type: cell-based, Human; details: for IC50: Homo sapiens, UACC-893, 72 h, UACC893, PIK3CA H1047R, 3 days, single agent; for sensitivity of the line to single agent: UACC893, H1047R PIK3CA mutation
Experimental: as §1, §2, §3, §4

BT474-J4 = assay: Cell growth inhibition assay (Cell Titer Glo), BT474-J4; assay type: cell-based, Human; details: for IC50: Homo sapiens, 72 h, BT474-J4 (resistant to Compound A and trastuzumab), PIK3CA K111N, 3 days, single agent
Experimental: as §1, §2
Inhibition of cell growth was estimated after treatment with Compound A or the combination of Compound A and Compound B for three days and comparing the signal to cells treated with vehicle (DMSO). Cell growth was calculated relative to vehicle (DMSO) treated control wells. […]

HCC1419 = assay: Cell growth inhibition assay (Cell Titer Glo), HCC1419; assay type: cell-based; details: Homo sapiens
Experimental: as §1, §2, §3, §4

KPL4 = assay: Cell growth inhibition assay (Cell Titer Glo), KPL4; assay type: cell-based, Human; details: for IC50: Homo sapiens, 72 h, KPL4, PIK3CA H1047R, 3 days, single agent; for sensitivity of the line to single agent: KPL-4, H1047R PIK3CA mutation
[1] = 72 h, SK-BR3-W13 (resistant to Compound A and trastuzumab), 3 days, single agent, read-out: Single agent (IC50, μm)
[2] = SK-BR-3-W13, single agent, bound stated, read-out: IC50
[3] = 72 h, SK-BR-3, PIK3CA WT, 3 days, single agent, read-out: Single agent (IC50, μm)
[4] = SK-BR-3, single agent, bound stated, read-out: IC50
[5] = BT-474, 72 h, BT474, PIK3CA K111N, 3 days, single agent, read-out: Single agent (IC50, μm)
[6] = BT-474, BT474, single agent, bound stated, read-out: IC50
[7] = JIMT-1, 72 h, JIMT1 (resistant to Compound A and trastuzumab), PIK3CA C420R, 3 days, single agent, read-out: Single agent (IC50, μm)
[8] = JIMT-1, JIMT1, single agent, bound stated, read-out: IC50
[9] = 72 h, HCC1419, PIK3CA WT, 3 days, single agent, read-out: Single agent (IC50, μm)
[10] = HCC1419, single agent, bound stated, read-out: IC50

SMILES	IC50 (SK-BR3-W13; [1]) [nM]	IC50 (SK-BR3-W13; [2]) [nM]	sensitivity of the line to single agent (HCC202)	IC50 (HCC202) [nM]	IC50 (SK-BR-3; [3]) [nM]	IC50 (SK-BR-3; [4]) [nM]	IC50 (BT474; [5]) [nM]	IC50 (BT474; [6]) [nM]	IC50 (MDA-MB-361) [nM]	sensitivity of the line to single agent (MDA-MB-361)	IC50 (JIMT1; [7]) [nM]	IC50 (JIMT1; [8]) [nM]	IC50 (UACC893) [nM]	sensitivity of the line to single agent (UACC893)	IC50 (BT474-J4) [nM]	IC50 (HCC1419; [9]) [nM]	IC50 (HCC1419; [10]) [nM]	IC50 (KPL4) [nM]	sensitivity of the line to single agent (KPL4)	sensitivity of the line to cell growth inhibition (BT474-J4; BT474-J4, single agent)
CS(=O)(=O)CCNCc1ccc(-c2ccc3ncnc(Nc4ccc(OCc5cccc(F)c5)c(Cl)c4)c3c2)o1 [Compound A, N-{3-Chloro-4-[(3-fluorobenzyl)oxy]phenyl}-6-[5-({[2-(methanesulphonyl)ethyl]amino}methyl)-2-furyl]-4-quinazolinamine, reference compound]	5600 ± 1050	> 5000	less sensitive	2408 ± 22	196 ± 70	< 200	171 ± 34	< 200	> 10000	less sensitive	7780 ± 1270	> 5000	492 ± 498	sensitive	5180 ± 2200	84 ± 34	< 200	430 ± 159	sensitive	
Cn1ncc(Cl)c1-c1cc(C(=O)N[C@H](CN)Cc2ccc(F)c(F)c2)oc1Cl [Compound B, N-{(1S)-2-amino-1-[(3,4-difluorophenyl)methyl]ethyl}-5-chloro-4-(4-chloro-1-methyl-1H-pyrazol-5-yl)-2-furancarboxamide]	> 1000	> 1000	less sensitive	919 ± 356	> 1000	> 500	> 1000	> 500	151 ± 22	less sensitive	> 1000	> 1000	30 ± 27	sensitive	142 ± 47	573 ± 154	> 500	19 ± 4	sensitive	sensitive
